From patent publication US20240116985A1, “STAPLED PEPTIDES AND METHODS THEREOF” (priority 2020, published 2024)
Non-standard residues stand in square brackets, D forms with d. Residues, ends and D or L forms follow the SMILES beside them. Bta = N[C@@H](Cc1csc2ccccc12)C(=O)O; tBuAla = CC(C)(C)C[C@H](N)C(=O)O; 3Thi = N[C@@H](Cc1ccsc1)C(=O)O; αMeP = C[C@@]1(C(=O)O)CCCN1; Aib = CC(C)(N)C(=O)O

Target: T1, full-length beta-Catenin (Uniprot ID P35222) (Homo sapiens, UniProt P35222)
T1 construct: 10 nM full-length beta-Catenin (Uniprot ID P35222)
T1 sequence (P35222 1-781): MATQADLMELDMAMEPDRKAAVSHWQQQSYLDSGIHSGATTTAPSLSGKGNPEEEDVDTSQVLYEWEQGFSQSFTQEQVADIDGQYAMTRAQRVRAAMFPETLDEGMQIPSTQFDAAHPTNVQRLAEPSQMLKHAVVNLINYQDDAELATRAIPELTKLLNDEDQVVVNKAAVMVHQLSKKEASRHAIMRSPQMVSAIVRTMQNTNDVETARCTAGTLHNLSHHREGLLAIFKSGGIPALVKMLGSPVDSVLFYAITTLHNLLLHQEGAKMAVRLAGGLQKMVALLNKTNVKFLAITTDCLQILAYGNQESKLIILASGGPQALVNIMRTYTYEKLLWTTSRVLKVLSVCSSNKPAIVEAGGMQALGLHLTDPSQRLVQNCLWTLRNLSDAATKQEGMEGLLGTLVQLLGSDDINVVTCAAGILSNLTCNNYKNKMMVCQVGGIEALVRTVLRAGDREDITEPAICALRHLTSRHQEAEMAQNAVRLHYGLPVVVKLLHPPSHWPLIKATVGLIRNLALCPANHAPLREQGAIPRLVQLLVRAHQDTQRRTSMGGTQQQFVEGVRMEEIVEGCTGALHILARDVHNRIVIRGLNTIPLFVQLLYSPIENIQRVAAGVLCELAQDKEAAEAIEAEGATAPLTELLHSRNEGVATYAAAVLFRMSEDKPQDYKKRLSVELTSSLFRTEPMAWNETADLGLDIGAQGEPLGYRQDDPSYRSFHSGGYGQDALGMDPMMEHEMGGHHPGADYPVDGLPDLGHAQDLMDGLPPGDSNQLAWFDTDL
Assay: Fluorescence polarization IC50 (beta-catenin / 5FAM-TCF4 10-53 competition)
Format: binding
Conditions: fluorescence polarization; read-out: beta-Catenin FP IC50

IC50	Compound
1.86 µM	CC(=O)N1CCC[C@]12CC=CCCCC1(CCCC=CCCCOC(=O)N3CC[C@@](C(=O)N[C@@H](Cc4cccc(-c5ccccc5)c4)C(=O)N[C@@H](Cc4ccccc4)C(=O)N[C@@H](CCC(N)=O)C(N)=O)(C3)NC(=O)[C@H](CC(C)C)NC(=O)[C@H](Cc3ccccc3)NC(=O)[C@H](C)NC(=O)[C@H](C)NC(=O)[C@H](Cc3cccc(C(=O)O)c3)NC(=O)[C@H](CC(=O)O)NC1=O)NC(=O)[C@H](CC(C)(C)C)NC(=O)[C@H](CC(=O)O)NC2=O (stereo partly drawn) [I-2214, Ac-PL3-Asp-Npg-B5-Asp-3COOHF-Ala-Ala-Phe-Leu-PyrS2-[Ph]-3SF-Phe-Gln-NH2]
1.54 µM	CC(=O)N1CCC[C@]12CC=CCCCC1(CCCC=CCCCOC(=O)N3CC[C@@](C(=O)N[C@@H](Cc4cccc(C5CC5)c4)C(=O)N[C@@H](Cc4ccccc4)C(=O)N[C@@H](CCC(N)=O)C(N)=O)(C3)NC(=O)[C@H](CC(C)C)NC(=O)[C@H](Cc3ccccc3)NC(=O)[C@H](C)NC(=O)[C@H](C)NC(=O)[C@H](Cc3cccc(C(=O)O)c3)NC(=O)[C@H](CC(=O)O)NC1=O)NC(=O)[C@H](CC(C)(C)C)NC(=O)[C@H](CC(=O)O)NC2=O (stereo partly drawn) [I-2215, Ac-PL3-Asp-Npg-B5-Asp-3COOHF-Ala-Ala-Phe-Leu-PyrS2-[CyPr]-3SF-Phe-Gln-NH2]
2.14 µM	CC(=O)N1CCC[C@@]1(C)C(=O)N[C@@H](CC(=O)O)C(=O)N[C@@H](CC(C)(C)C)C(=O)NC(C)(C)C(=O)N[C@@H](CC(=O)O)C(=O)N[C@@H](CC(=O)O)C(=O)N[C@@H](C)C(=O)N[C@@H](C)C(=O)N[C@@H](Cc1ccccc1)C(=O)N[C@@H](CCC(N)=O)C(=O)NC(C)(C)C(=O)N[C@@H](Cc1ccsc1)C(=O)N[C@@H](Cc1csc2ccccc12)C(=O)N[C@@H](Cc1c[nH]cn1)C(N)=O [I-2228, Ac-MePro-Asp-Npg-Aib-Asp-Asp-Ala-Ala-Phe-Gln-Aib-3thi-BztA-His-NH2] (Ac-[αMeP]D[tBuAla][Aib]DDAAFQ[Aib][3Thi][Bta]H-NH2)
0.006 µM	CC(=O)N1CCC[C@]12CC=CCCCC1(CCCC=CCCCOC(=O)N3CC[C@@](C(=O)N[C@@H](Cc4ccsc4)C(=O)N[C@@H](Cc4csc5ccccc45)C(=O)N[C@@H](Cc4c[nH]cn4)C(=O)N[C@@H](CCCCN)C(N)=O)(C3)NC(=O)[C@H](CCC(N)=O)NC(=O)[C@H](Cc3ccccc3)NC(=O)[C@H](C)NC(=O)[C@H](C)NC(=O)[C@H](CC(=O)O)NC(=O)[C@H](CC(=O)O)NC1=O)NC(=O)[C@H](CC(C)(C)C)NC(=O)[C@H](CC(=O)O)NC2=O (stereo partly drawn) [I-2229, Ac-PL3-Asp-Npg-B5-Asp-Asp-Ala-Ala-Phe-Gln-PyrS2-3thi-BztA-His-Lys-NH2]
0.008 µM	CC(=O)N1CCC[C@]12CC=CCCCC1(CCCC=CCCCOC(=O)N3CC[C@@](C(=O)N[C@@H](Cc4ccsc4)C(=O)N[C@@H](Cc4csc5ccccc45)C(=O)N[C@@H](Cc4c[nH]cn4)C(=O)N[C@@H](CCCCN)C(N)=O)(C3)NC(=O)[C@H](CCC(N)=O)NC(=O)[C@H](Cc3ccccc3)NC(=O)[C@H](C)NC(=O)[C@H](C)NC(=O)[C@H](CC(=O)O)NC(=O)[C@H](CC(=O)O)NC1=O)NC(=O)[C@H](CC(C)(C)C)NC(=O)[C@H](CC(=O)O)NC2=O (stereo partly drawn) [I-2230, Ac-PL3-Asp-Npg-B5-Asp-Asp-Ala-Ala-Phe-Gln-PyrS2-3thi-BztA-His-Lys-NH2]
5.19 µM	CC(=O)N1CCC[C@@]1(C)C(=O)N[C@@H](CC(=O)O)C(=O)N[C@@H](CC(C)(C)C)C(=O)NC(C)(C)C(=O)N[C@@H](CC(=O)O)C(=O)N[C@@H](CC(=O)O)C(=O)N[C@@H](C)C(=O)N[C@@H](C)C(=O)N[C@@H](Cc1ccccc1)C(=O)N[C@@H](CCC(N)=O)C(=O)NC(C)(C)C(=O)N[C@@H](Cc1ccsc1)C(=O)N[C@@H](Cc1csc2ccccc12)C(=O)N[C@@H](Cc1c[nH]cn1)C(=O)N[C@@H](CCCCN)C(N)=O [I-2231, Ac-MePro-Asp-Npg-Aib-Asp-Asp-Ala-Ala-Phe-Gln-Aib-3thi-BztA-His-Lys-NH2] (Ac-[αMeP]D[tBuAla][Aib]DDAAFQ[Aib][3Thi][Bta]HK-NH2)
